This passage reports IC50 results from patent US5177075A, “Substituted dihydroisoquinolinones and related compounds as potentiators of the lethal effects of radiation and certain chemotherapeutic agents; selected compounds, analogs and process” (priority 1991, dated 1993).

This assay has as its target T1, Poly(ADP-ribose) synthetase (Bos taurus, UniProt P18493).
T1 construct: Poly (ADP-ribose) synthetase from calf thymus; from tissue; host or cells: calf thymus
In words: Inhibition of Poly(ADP-ribose) synthetase. It counts as biochemical, calf. Particulars: 30° C., 15 minutes, [3H]NAD; read-out: IC50.

Molecules are shown by their SMILES. Structures can show the parent of a compound that is named as a salt.

T1 sequence (P18493 whole entry): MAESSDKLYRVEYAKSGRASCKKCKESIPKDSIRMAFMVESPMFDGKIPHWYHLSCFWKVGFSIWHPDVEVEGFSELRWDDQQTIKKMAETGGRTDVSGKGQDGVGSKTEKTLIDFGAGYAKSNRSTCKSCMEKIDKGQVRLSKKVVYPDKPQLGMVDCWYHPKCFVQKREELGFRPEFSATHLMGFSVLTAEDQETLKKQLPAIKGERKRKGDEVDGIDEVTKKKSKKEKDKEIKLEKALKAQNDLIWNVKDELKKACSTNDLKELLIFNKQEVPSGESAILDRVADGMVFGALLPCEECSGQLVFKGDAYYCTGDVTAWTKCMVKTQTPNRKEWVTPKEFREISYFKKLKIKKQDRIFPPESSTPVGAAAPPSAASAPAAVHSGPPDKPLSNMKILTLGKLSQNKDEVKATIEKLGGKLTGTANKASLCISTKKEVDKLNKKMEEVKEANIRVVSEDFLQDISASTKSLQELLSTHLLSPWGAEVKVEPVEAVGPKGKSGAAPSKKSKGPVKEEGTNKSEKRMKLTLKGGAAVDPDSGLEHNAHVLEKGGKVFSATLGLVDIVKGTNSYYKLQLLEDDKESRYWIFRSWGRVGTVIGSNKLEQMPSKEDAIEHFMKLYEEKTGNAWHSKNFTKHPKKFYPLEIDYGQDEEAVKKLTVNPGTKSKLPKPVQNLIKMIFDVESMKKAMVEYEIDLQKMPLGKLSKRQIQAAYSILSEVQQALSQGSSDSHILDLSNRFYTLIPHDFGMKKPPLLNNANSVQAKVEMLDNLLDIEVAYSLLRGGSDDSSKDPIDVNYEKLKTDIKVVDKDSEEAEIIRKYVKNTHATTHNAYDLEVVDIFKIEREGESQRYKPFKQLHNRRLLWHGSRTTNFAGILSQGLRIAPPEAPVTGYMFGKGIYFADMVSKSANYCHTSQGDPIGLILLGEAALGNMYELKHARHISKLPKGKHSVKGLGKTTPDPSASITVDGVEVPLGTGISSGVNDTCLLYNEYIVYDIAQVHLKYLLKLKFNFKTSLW
Description: The enzyme assay is performed by placing the following in small glass tubes kept at 4°: 100 μl of buffer consisting of 0.5M Tris-HCl pH 8.0, 50 mM MgCl2, and 5 mM dithiothreitol; 50 μl of 1 mM [^3 H]nicotinamide adenine dinucleotide having a specific activity of 15 μCi/μmol; 100 μl of calf thymus DNA (0.3 mg/ml in water); 50 μl of calf thymus histone (Sigma, Type IIA, 0.5 mg/ml); 50 μl of inhibitor or inhibitor solvent; 150 μl of enzyme. The components are thoroughly mixed and warmed to 30° C. in a water bath. After 15 minutes the reaction is stopped by adding 2 ml of ice cold 15% trichloroacetic acid and the tubes are placed on ice for 15 minutes. The precipitate is collected on glass fiber filters and washed five times with ice cold 15% trichloroacetic acid. The filters were dried and radioactivity determined in a liquid scintillation counter.

On to `COc1cccc2c1CCNC2=O` [Example V, 3,4-Dihydro-5-methoxy-1(2H)-isoquinolinone], for which the concentration for half-maximal inhibition (IC50) turned out to be 420 nM.
The value for `CC(=O)Oc1cccc2c1CCNC2=O` [Example VI, 5-(Acetyloxy)-3,4-dihydro-1(2H)-isoquinolinone] was 2110 nM; that for `O=C1NCCc2c(OCc3ccccc3)cccc21` [Example VII, 3,4-Dihydro-5-(phenylmethoxy)-1(2H)-isoquinolinone] was 5200 nM.
On to `O=C1NCCc2c(NCc3ccccc3)cccc21` [Example X, 3,4-Dihydro-5-[(phenylmethyl)amino]-1(2H)-isoquinolinone], for which the IC50 came to 2550 nM.
Then `CC(=O)Nc1cccc2c1CCNC2=O` [Example XI, N-(1,2,3,4-Tetrahydro-1-oxo-5-isoquinolinyl)acetamide], with 56700 nM.
Then `O=C1NCCc2c(OCC(O)Cc3ccccc3)cccc21` (stereo not shown) [Example XL, 3,4-Dihydro-5-(2-hydroxy-3-phenylpropoxy)-1(2H)-isoquinolinone], with 340 nM.
The value for `COc1cccc2c(=O)[nH]c(-c3ccccc3)cc12` [Example XX, 5-Methoxy-3-phenyl-1(2H)-isoquinolinone] was 2120 nM.
On to `Nc1c[nH]c(=O)c2ccccc12` [Example XXV, 4-Amino-1(2H)-isoquinolinone monohydrochloride], for which the IC50 stood at 660 nM.
Then `O=c1[nH]cc(Br)c2c(O)cccc12` [Example XXVI, 4-Bromo-5-hydroxy-1(2H)-isoquinolinone], with 61 nM; and `O=C1NCCc2c(OCCCN3CCCCC3)cccc21` [Example XXVII, 3,4-Dihydro-5-[3-(1-piperidinyl)propoxy]-1(2H)-isoquinolinone], with 830 nM; and `O=C1NCCc2c(OC[C@@H](O)CN3CCCCC3)cccc21` [L, (S)-3,4-Dihydro-5-[2-hydroxy-3-(1-piperidinyl)propoxy]-1(2H)-isoquinolinone], with 270 nM.
As for `CN(C)COc1cccc2c1CCNC2=O` [XIII], the IC50 amounted to 970 nM.
`COc1cccc2c(=O)[nH]ccc12` [XIV, 5-Methoxy-1(2H)-isoquinolinone]: the IC50 worked out at 580 nM.
The value for `CSC1=NCCc2c(C)cccc21` [XIX, 3,4-Dihydro-5-methyl-1-(methylthio)-isoquinoline] was 1550 nM.
The value for `O=C1NCCc2c(OCCc3ccccc3)cccc21` [XLI, 3,4-Dihydro-5-(phenylethoxy)-1(2H)-isoquinolinone] was 600 nM; that for `COc1cccc2c(=O)[nH]nc(C)c12` [XLII, 5-Methoxy-4-methyl-1(2H)phthalazinone] was 80 nM; that for `O=C1NCCc2c(OC[C@H](O)CN3CCCCC3)cccc21` [XLIX, (R)-3,4-Dihydro-5-[2-hydroxy-3-(1-piperidinyl)propoxy]-1(2H)-isoquinolinone] was 330 nM.
The value for `O=C1NCCc2c(Cl)cccc21` [XVI, 5-Chloro-3,4-dihydro-1(2H)-isoquinolinone] was 310 nM; that for `COc1cccc2c1CCN=C2SC` [XVII, 3,4-Dihydro-5-methoxy-1-(methylthio)-isoquinoline] was 580 nM; that for `Cc1cccc2c1CC(C)NC2=O` (stereo not shown) [XVIII, 3,4-Dihydro-3,5-dimethyl-1(2H)-isoquinolinone] was 740 nM.
`Oc1ncc(Br)c2ccccc12` [XXIII, 4-Bromo-1-isoquinolinol]: the IC50 came out at 360 nM.
Then `O=C1NCCc2c(OCC(O)CN3CCOCC3)cccc21` (stereo not shown) [XXIX], with 1500 nM.
Consider `O=C1NCCc2c(OCC(O)CN3CCCC3)cccc21` (stereo not shown) [XXVIII, 3,4-Dihydro-5-[2-hydroxy-3-(1-pyrrolidinyl)propoxy]-1-(2H)-isoquinolinone], for which the half-inhibitory concentration (IC50) came to 770 nM.
Then `CNCC(O)COc1cccc2c1CCNC2=O` (stereo not shown) [XXXI, 3,4-Dihydro-5-[2-hydroxy-3-(methylamino)propoxy]-1(2H)-isoquinolinone], with 200 nM.
Then `CNCCCOc1cccc2c1CCNC2=O` [XXXII, 3,4-Dihydro-5-[3-methylamino)propoxy]-1(2H)-isoquinolinone hydrochloride], with 330 nM.

Broadly, the IC50 is the concentration needed to halve the response being measured.
